The values below come from PubChem BioAssay (NCI).

Among the test systems are LOX IMVI melanoma; SNB-75 CNS; HCT-15 colon; SK-OV-3 ovarian; A498 renal; DU-145 prostate; SR leukemia; OVCAR-5 ovarian; HCC-2998 colon; SF-295 CNS.
Holding throughout (experiment): NCI-60 cell line screen, 48 h

Values joined by “and” are separate entries in the source; they are usually repeats but may differ in a detail not shown here. Identical values can stand only once.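 Exposure lasted 48 hours, with cells grown in 96-well plates and compounds tested at five concentrations. The concentration for 50% growth inhibition is given as GI50. TGI: concentration producing complete growth inhibition.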

As for `O=[N+]([O-])c1ccc(C(c2c[nH]c3ccccc23)c2c[nH]c3ccccc23)cc1`, the TGI worked out at 41.2 µM in the experiment with LOX IMVI melanoma; 18.5 µM with SNB-75 CNS; 29.7 µM in the experiment on HCT-15 colon; 33.1 µM in the experiment on SK-OV-3 ovarian; 30.1 µM in the experiment on A498 renal; 20.6 µM with DU-145 prostate. Also, the TGI was 22.5 µM with SR leukemia, 54.4 µM in the experiment on OVCAR-5 ovarian, 39.3 µM with HCC-2998 colon and over 100 µM in the experiment with SF-295 CNS.

`O=[N+]([O-])C1C(c2ccccc2)C12c1ccccc1-c1ccccc12` (configuration not stated): the GI50 is 0.416 µM in the experiment with LOX IMVI melanoma; 0.612 µM with SNB-75 CNS; 0.546 µM in the experiment with HCT-15 colon; 1.84 µM in the experiment with SK-OV-3 ovarian; 0.316 µM in the experiment with A498 renal; 0.733 µM with DU-145 prostate. Besides, the GI50 in the experiment with SR leukemia is 0.348 µM; with OVCAR-5 ovarian it was 4.65 µM; in the experiment with HCC-2998 colon, 1.49 µM; with SF-295 CNS, 0.598 µM. Besides, the TGI with LOX IMVI melanoma was 2.47 µM; with SNB-75 CNS, 14 µM; in the experiment with HCT-15 colon, 30.4 µM; in the experiment on SK-OV-3 ovarian, over 41.1 µM; with A498 renal it was 3.83 µM; in the experiment with DU-145 prostate, 3.66 µM. The TGI in the experiment with SR leukemia was 4.22 µM; with OVCAR-5 ovarian, over 51.8 µM; in the experiment on HCC-2998 colon, 6.43 µM; in the experiment on SF-295 CNS it was 43.9 µM.

Consider `Nc1nc(SCc2ccccn2)c2ncn(C3CCCC3)c2n1`, for which the TGI in the experiment on LOX IMVI melanoma, in the experiment on SNB-75 CNS, with HCT-15 colon, in the experiment with SK-OV-3 ovarian, in the experiment with A498 renal and with DU-145 prostate was over 100 µM throughout. Also, the TGI with SR leukemia, with OVCAR-5 ovarian, in the experiment with HCC-2998 colon and with SF-295 CNS was over 100 µM throughout.

`COc1cc(C2CC(c3ccc(C)cc3)=NN2C=O)ccc1Oc1ccnc2cc(Cl)ccc12` (configuration not stated): the GI50 was over 50 µM in the experiment on LOX IMVI melanoma; 1.13 µM with SNB-75 CNS; over 50 µM in the experiment with HCT-15 colon; 7.2 µM in the experiment on SK-OV-3 ovarian; 5.73 µM with A498 renal; over 50 µM with DU-145 prostate. Further, the GI50 was over 50 µM in the experiment with SR leukemia, over 50 µM in the experiment with OVCAR-5 ovarian, over 50 µM with HCC-2998 colon and 4.41 µM in the experiment with SF-295 CNS. Moreover, the TGI with LOX IMVI melanoma was over 50 µM; in the experiment with SNB-75 CNS, 6.92 µM; in the experiment with HCT-15 colon, over 50 µM; in the experiment on SK-OV-3 ovarian, over 50 µM; with A498 renal, 23.1 µM; in the experiment on DU-145 prostate it was over 50 µM. For the same molecule, the TGI in the experiment with SR leukemia was over 50 µM; in the experiment on OVCAR-5 ovarian, over 50 µM; with HCC-2998 colon, over 50 µM; in the experiment on SF-295 CNS it was 23.7 µM.

As for `Cc1cc(-c2ncc(CC(=O)Nc3ccc(-c4cnccn4)cn3)cc2C)ccn1`, the GI50 in the experiment on LOX IMVI melanoma was 68.7 µM; in the experiment on SNB-75 CNS it was 13.8 µM; in the experiment with HCT-15 colon, 38.4 µM; in the experiment on SK-OV-3 ovarian, over 100 µM; in the experiment on A498 renal, 2.8 µM; in the experiment with DU-145 prostate, 72.9 µM. For the same molecule, the GI50 was 18.4 µM in the experiment with SR leukemia, 26.3 µM in the experiment with OVCAR-5 ovarian, over 100 µM with HCC-2998 colon and 15.3 µM with SF-295 CNS. The TGI in the experiment with LOX IMVI melanoma was over 100 µM; in the experiment on SNB-75 CNS, over 100 µM; in the experiment with HCT-15 colon it was over 100 µM; in the experiment with SK-OV-3 ovarian it was over 100 µM; in the experiment on A498 renal, 65.5 µM; in the experiment on DU-145 prostate, over 100 µM. Also, the TGI in the experiment on SR leukemia, in the experiment on OVCAR-5 ovarian, in the experiment on HCC-2998 colon and in the experiment with SF-295 CNS was over 100 µM throughout.

Regarding `COc1ccc(C(=O)/C(Br)=C/C(=O)O)cc1`, the GI50 in the experiment on LOX IMVI melanoma was 18.1 µM; in the experiment on HCT-15 colon it was 10.6 µM; in the experiment on A498 renal it was 58.3 µM; in the experiment on DU-145 prostate, 65.3 µM; in the experiment with SR leukemia, 19.1 µM; in the experiment on HCC-2998 colon, 26.6 µM. Further, in the experiment on SF-295 CNS, the GI50 was 33.5 µM. Moreover, the TGI with LOX IMVI melanoma is 53.2 µM and 53 µM; in the experiment with SNB-75 CNS it was 145 µM and 186 µM; with HCT-15 colon, 101 µM and 94.4 µM; in the experiment with SK-OV-3 ovarian, 358 µM and 299 µM; in the experiment with A498 renal, 192 µM and 77.3 µM; in the experiment on DU-145 prostate, 128 µM and 202 µM. Besides, the TGI is > 86 µM and 321 µM in the experiment with SR leukemia; 131 µM and 129 µM in the experiment with OVCAR-5 ovarian; 76.3 µM and 51.8 µM in the experiment on HCC-2998 colon; 175 µM and 140 µM with SF-295 CNS.
